Measurements from patent US20250145715A1, “B7-H3 TARGETING FUSION PROTEINS AND METHODS OF USE THEREOF” (GT Biopharma, Inc., priority 2021, published 2025).
Entries after “also recorded” stand apart in the source; their conditions may differ.

Tests used:
[1] = tested on: HNSCC cells (Cal27, Cal33); assay: IncuCyte 2D and 3D spheroid killing of HNSCC; format: cell-based, human; conditions: 2D and 3D IncuCyte; E:T 5:1, 3 nM; irrespective of FANCA gene; vs B7-H3 single domain or IL-15 alone
Protocol: FIGS. 28A-28F illustrate real-time imaging assays. FIG. 28A is a graph showing Nuclight red-labeled Cal27 survival after incubation with NK cells at an E:T of 5:1 in different conditions: no treatment or 3 nM IL-15, B7-H3 SD and B7-H3 TriKE for 48 hours in an IncuCyte Zoom imager. […] FIG. 28C is a graph illustrating the size of the spheroid in FIG. 28B. FIG. 28D is a graph showing Nuclight red-labeled Cal33 survival after incubation with NK cells at an E:T of 5:1 in different conditions: no treatment or 3 nM IL-15, B7-H3 SD and B7-H3 TriKE for 48 hours in an IncuCyte Zoom imager. […] FIG. 28F is a graph illustrating the size of the spheroid in FIG. 28E.
NK cell responses against HNSCC lines in the presence of the B7-H3 TriKE were assessed through either flow cytometry based functional assays, to evaluate NK cell degranulation and cytokine secretion, or IncuCyte imaging assays, to directly assess target killing. […]
Enriched NK cells (N=4) were incubated with Nuclight red-labeled Cal27 at an E:T of 5:1 in different conditions: no treatment or 3 nM IL-15, B7-H3 SD and B7-H3 TriKE for 48 hours in an IncuCyte Zoom imager. Quantifications of percent live cells were done by normalizing hourly counts of red cells to targets alone at t=0. […] Quantifications of percent average red object area (live cells) were done by normalizing hourly counts of average red object area to targets alone at t=0. […]

[2] = tested on: HNSCC cell lines (Cal27 trio, Cal33 trio); assay: NK cell CD107a / IFN-γ flow cytometry against HNSCC lines; format: cell-based, human
Protocol: FIGS. 27A-27D illustrate the functional validation of B7-H3 TriKE. FIG. 27A is a graph illustrating CD107a expression in PBMCs from healthy donors incubated with Cal27 trio. FIG. 27B is a graph illustrating intracellular IFN-γ production in PBMCs from healthy donors incubated with Cal27 trio. FIG. 27C is a graph illustrating CD107a expression in PBMCs from healthy donors incubated with Cal33 trio. FIG. 27D is a graph illustrating intracellular IFN-γ production in PBMCs from healthy donors incubated with Cal33 trio.
NK cell responses against HNSCC lines in the presence of the B7-H3 TriKE were assessed through either flow cytometry based functional assays, to evaluate NK cell degranulation and cytokine secretion, or IncuCyte imaging assays, to directly assess target killing. NK cell degranulation and IFN-gamma production of B7-H3 TriKE-treated samples were higher compared to that of control samples treated with B7-H3 single domain or IL-15 alone. […] Ongoing experiments will evaluate the functionality and efficacy of the B7-H3 TriKE in vivo.
Frozen PBMCs (N=3) from healthy donors were incubated for 5 hours with (A-B) Cal27 trio and […] Cal33 trio (each trio consisting of a HNSCC WT line and 2 clones of HNSCC FANCA KO lines) in different treatments: no treatment or 3 nM IL-15, MOPC, B7-H3 SD and B7-H3TriKE to evaluate CD107a expression (as a marker for degranulation) and intracellular IFN-γ production. Error bars indicate standard error of mean, and statistical significance was determined as *p<0.05, **p<0.01, ***p<0.001 and ****p<0.0001

[3] = vs B7-H3 single domain or IL-15 alone

In the case of “B7-H3 TriKE: camelid nanobodies targeting CD16 and B7-H3 joined by IL-15 and two linkers; sequence table equates the name with cam1615B7-H3”, the “HNSCC target cell killing by NK cells” value [1] is reported as “more HNSCC target cell killing; also recorded: induced NK cell killing against HNSCC”, the “NK cell activity (CD107a, IFN-γ) against HNSCC” value ([2]; 3 nM, 5 hours, Cal27 trio and Cal33 trio, healthy donor PBMCs) is reported as “induced NK cell activity against HNSCC” and the “NK cell IFN-gamma production against HNSCC” value [2, 3] is reported as “higher”. For the same substance, the “NK cell degranulation against HNSCC” value [2, 3] was “higher”.
